15 molecules from patent US11787802B2, “Dihydrobenzimidazolones for medical treatment” (C4 Therapeutics, Inc., priority 2017, dated 2023) can be followed below.

Some results are limits rather than exact numbers.

Sequence of hCereblon(M1-L442)_hDDB1(M1-H1140) (Q96SW2 whole entry): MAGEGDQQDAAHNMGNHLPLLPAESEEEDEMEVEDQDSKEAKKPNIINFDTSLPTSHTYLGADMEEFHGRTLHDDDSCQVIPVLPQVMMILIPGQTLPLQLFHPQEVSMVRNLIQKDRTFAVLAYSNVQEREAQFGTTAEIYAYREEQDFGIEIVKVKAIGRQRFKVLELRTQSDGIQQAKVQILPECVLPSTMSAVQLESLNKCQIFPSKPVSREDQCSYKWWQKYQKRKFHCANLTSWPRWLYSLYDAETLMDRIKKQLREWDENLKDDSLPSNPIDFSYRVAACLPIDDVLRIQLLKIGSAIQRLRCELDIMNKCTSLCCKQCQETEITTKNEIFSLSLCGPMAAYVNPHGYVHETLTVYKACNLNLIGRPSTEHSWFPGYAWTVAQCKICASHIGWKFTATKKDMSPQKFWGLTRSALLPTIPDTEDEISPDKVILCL
Sequence of hCereblon(M1-L442)_hDDB1(M1-H1140) (Q16531 whole entry partner): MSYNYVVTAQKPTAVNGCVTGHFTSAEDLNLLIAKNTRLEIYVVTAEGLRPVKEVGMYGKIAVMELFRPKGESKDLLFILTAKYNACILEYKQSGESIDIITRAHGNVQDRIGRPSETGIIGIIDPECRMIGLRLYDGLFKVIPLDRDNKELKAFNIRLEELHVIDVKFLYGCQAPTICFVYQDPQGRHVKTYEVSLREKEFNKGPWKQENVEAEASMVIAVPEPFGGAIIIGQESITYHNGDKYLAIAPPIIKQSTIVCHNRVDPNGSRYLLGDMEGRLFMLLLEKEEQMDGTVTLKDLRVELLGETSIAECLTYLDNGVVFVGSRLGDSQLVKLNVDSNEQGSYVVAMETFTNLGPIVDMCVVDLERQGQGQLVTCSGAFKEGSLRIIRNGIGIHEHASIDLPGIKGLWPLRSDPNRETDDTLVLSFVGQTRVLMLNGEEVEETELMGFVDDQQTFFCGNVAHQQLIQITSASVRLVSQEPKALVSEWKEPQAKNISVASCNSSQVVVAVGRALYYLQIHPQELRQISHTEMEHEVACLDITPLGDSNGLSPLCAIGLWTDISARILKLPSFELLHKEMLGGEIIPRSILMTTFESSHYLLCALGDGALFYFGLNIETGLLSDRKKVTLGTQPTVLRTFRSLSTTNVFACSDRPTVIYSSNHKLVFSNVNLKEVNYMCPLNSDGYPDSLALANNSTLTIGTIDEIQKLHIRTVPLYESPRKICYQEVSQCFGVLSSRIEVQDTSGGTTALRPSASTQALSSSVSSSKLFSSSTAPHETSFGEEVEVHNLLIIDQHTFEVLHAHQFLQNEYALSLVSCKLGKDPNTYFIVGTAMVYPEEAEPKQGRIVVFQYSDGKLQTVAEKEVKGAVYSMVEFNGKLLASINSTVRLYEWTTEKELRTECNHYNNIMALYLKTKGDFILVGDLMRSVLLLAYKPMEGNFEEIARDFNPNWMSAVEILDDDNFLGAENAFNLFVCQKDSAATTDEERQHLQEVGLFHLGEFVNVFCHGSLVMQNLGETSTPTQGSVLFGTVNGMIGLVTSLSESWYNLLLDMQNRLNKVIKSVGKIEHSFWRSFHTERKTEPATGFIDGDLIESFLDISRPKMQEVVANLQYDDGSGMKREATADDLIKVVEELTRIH

This assay concerns the target hCereblon(M1-L442)_hDDB1(M1-H1140) (Homo sapiens (Human), UniProt Q96SW2). Nature of the assay: Fluorescence direct binding protocol (tryptophan fluorescence titration). The following applies: fluorescence titration at 20° C., excited at 280 nm, recorded at 340 nm; protein 5.0 E−8 M; assay buffer 50 mM Hepes 7.4 200 mM NaCl; read-out: Fluorescence h-Cereblon_DDB1 Mean Kd_EQ. An outline of the steps: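 At 20° C., protein at constant concentration was titrated with ligand in DMSO over at least 12 steps, exciting tryptophan at 280 nm and reading emission at 340 nm. Intensities were corrected for dilution and filter effect, and Kd was fitted assuming 1:1 binding.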
For the molecule `CNC(=O)c1ccc2c(c1)nc(-c1cn(C)cn1)n2-c1ccc2[nH]c(=O)[nH]c2c1` [Example 65, N-Methyl-2-(1-methyl-1H-imidazol-4-yl)-2′-oxo-2′,3′-dihydro-1′H-[1,5′-bibenzo[d]imidazole]-5-carboxamide], the Kd turned out to be 9 nM.

In the case of `CC(=O)Nc1ccc2c(c1)CCN2c1ccc2[nH]c(=O)[nH]c2c1` [Example 141, N-(1-(2-Oxo-2,3-dihydro-1H-benzo[d]imidazol-5-yl)indolin-5-yl)acetamide], the Kd amounted to 53 nM.

With `COC(=O)c1cccc2c1CCCN2C(=O)Nc1ccc2[nH]c(=O)[nH]c2c1` [Example 98, Methyl 1-((2-oxo-2,3-dihydro-1H-benzo[d]imidazol-5-yl)carbamoyl)-1,2,3,4-tetrahydroquinoline-5-carboxylate], the Kd came out at 86 nM.

For `CNC(=O)c1ccccc1NC(=O)c1ccc2[nH]c(=O)[nH]c2c1` [Example 147, N-(2-(Methylcarbamoyl)phenyl)-2-oxo-2,3-dihydro-1H-benzo[d]imidazole-5-carboxamide], the Kd stood at 338 nM.

Consider `CNC(=O)CCc1nc2ccccc2n1-c1ccc2[nH]c(=O)[nH]c2c1` [Example 81, N-Methyl-3-[1-(2-oxo-1,3-dihydrobenzimidazol-5-yl)benzimidazol-2-yl]propanamide], for which the Kd amounted to 4 nM.

Consider `Nc1ccc2c(c1)CCN2Cc1ccc2[nH]c(=O)[nH]c2c1` [Example 149, 5-((5-Aminoindolin-1-yl)methyl)-1,3-dihydro-2H-benzo[d]imidazol-2-one], for which the Kd came to 17 nM.

Regarding `CNC(=O)c1ccc2c(c1)nc(C(C)C)n2-c1ccc2[nH]c(=O)[nH]c2c1` [Example 16, 2-Isopropyl-N-methyl-2′-oxo-2′,3′-dihydro-1′H-[1,5′-bibenzo[d]imidazole]-5-carboxamide], the Kd worked out at 11 nM.

As for `CNC(=O)c1ccc2c(c1)nc(Cc1cccc(OC)c1)n2-c1ccc2[nH]c(=O)[nH]c2c1` [Example 28, 2-(3-Methoxybenzyl)-N-methyl-2′-oxo-2′,3′-dihydro-1′H-[1,5′-bibenzo[d]imidazole]-5-carboxamide], the Kd turned out to be 12 nM.

Regarding `COc1ccc2c(c1)nc(C(C)C)n2-c1ccc2[nH]c(=O)[nH]c2c1` [Example 124, 2-Isopropyl-5-methoxy-1′,3′-dihydro-2′H-[1,5′-bibenzo[d]imidazol]-2′-one], the Kd is 13 nM.

As to `O=C(Nc1ccc2[nH]c(=O)[nH]c2c1)c1ccccc1` [Example 73, N-(2-Oxo-2,3-dihydro-1H-benzo[d]imidazol-5-yl)benzamide], the Kd is 11 nM.

Consider `CNC(=O)c1ccc2c(c1)nc(-c1ccnc(OC)c1)n2-c1ccc2[nH]c(=O)[nH]c2c1` [Example 108, 2-(2-Methoxypyridin-4-yl)-N-methyl-2′-oxo-2′,3′-dihydro-1′H-[1,5′-bibenzo[d]imidazole]-5-carboxamide], for which the Kd was 107 nM.

As for `O=C(c1nc2ccccc2n1-c1ccc2[nH]c(=O)[nH]c2c1)N1CCCCC1` [Example 103, 5-[2-(Piperidine-1-carbonyl)benzimidazol-1-yl]-1,3-dihydrobenzimidazol-2-one], the Kd was 35 nM.

With `O=c1[nH]c2ccc(NC3CCN(Cc4ccccc4)CC3)cc2[nH]1` [Example 152, 5-((1-Benzylpiperidin-4-yl)amino)-1,3-dihydro-2H-benzo[d]imidazol-2-one], the Kd came out at 21 nM.

For the molecule `CC(C)(C)OC(=O)N1CCc2c(C(=O)Nc3ccc4[nH]c(=O)[nH]c4c3)cccc21` [Example 143, tert-Butyl 4-((2-oxo-2,3-dihydro-1H-benzo[d]imidazol-5-yl)carbamoyl)indoline-1-carboxylate], the Kd turned out to be 159 nM.

For the molecule `COc1cnccc1C(=O)Nc1ccc2[nH]c(=O)[nH]c2c1` [Example 132, 3-Methoxy-N-(2-oxo-2,3-dihydro-1H-benzo[d]imidazol-5-yl)isonicotinamide], the Kd was less than 1 nM.
